Patent US12098407B2, “Methods for decoupling yield and productivity of a non-catabolic compound produced by a host cell” (AMYRIS, INC., priority 2019, dated 2024)
Like-named read-outs stand apart in the source and are kept apart here.

What was measured:
[1] = test system: biomass yield; assay: Concentration of weak organic acid required to reduce the biomass yield to 50% of the reference condition; assay type: cell-based; settings: concentration required to reduce the biomass yield to 50% of the reference condition
[2] = target: T1, HMGR from P. mevalonii (Pseudomonas mevalonii, UniProt P13702); settings: class II HMGR, source P. mevalonii; read-out: Km^NADH; cited from earlier work
T1 sequence (P13702 1-428): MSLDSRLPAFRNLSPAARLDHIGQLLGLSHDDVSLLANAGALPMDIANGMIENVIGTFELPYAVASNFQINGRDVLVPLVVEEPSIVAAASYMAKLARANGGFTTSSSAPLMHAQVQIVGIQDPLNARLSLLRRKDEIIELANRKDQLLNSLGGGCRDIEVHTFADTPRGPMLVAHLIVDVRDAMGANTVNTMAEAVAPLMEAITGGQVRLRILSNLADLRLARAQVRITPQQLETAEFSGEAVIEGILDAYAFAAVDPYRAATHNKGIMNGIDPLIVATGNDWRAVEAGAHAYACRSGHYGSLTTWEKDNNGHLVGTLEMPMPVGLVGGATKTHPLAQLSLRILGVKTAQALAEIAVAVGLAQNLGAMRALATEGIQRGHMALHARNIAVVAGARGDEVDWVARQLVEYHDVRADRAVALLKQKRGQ

[3] = target: T2, HMGR from A. fulgidus (Archaeoglobus fulgidus, UniProt O28538); settings: class II HMGR, source A. fulgidus, cited from earlier work
T2 sequence (O28538 1-436): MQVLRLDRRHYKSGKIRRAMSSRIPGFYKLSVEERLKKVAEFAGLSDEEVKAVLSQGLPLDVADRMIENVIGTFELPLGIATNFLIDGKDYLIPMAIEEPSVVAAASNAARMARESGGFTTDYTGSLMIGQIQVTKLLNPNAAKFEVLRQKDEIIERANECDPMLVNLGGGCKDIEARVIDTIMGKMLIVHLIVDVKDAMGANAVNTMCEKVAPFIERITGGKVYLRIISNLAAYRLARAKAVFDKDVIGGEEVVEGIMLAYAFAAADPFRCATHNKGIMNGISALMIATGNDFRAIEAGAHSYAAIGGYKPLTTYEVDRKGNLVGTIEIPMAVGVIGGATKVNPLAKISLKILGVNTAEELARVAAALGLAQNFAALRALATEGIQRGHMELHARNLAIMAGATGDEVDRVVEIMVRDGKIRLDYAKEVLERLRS

[4] = test system: HMGR from S. aureus; settings: class II HMGR, source S. aureus, cited from earlier work
[5] = target: HMGR from E. faecalis (Enterococcus faecalis, UniProt Q9FD70); settings: class II HMGR, source E. faecalis; read-out: Km^NADPH; cited from earlier work
[6] = test system: farnesene-producing strain; assay: Farnesene-producing strain treated with different concentrations of benzoic acid; assay type: cell-based; settings: FIG. 8
Experimental: Benzoic acid can be used to deplete ATP in the cell by forcing the cells to use ATP to pump out excess protons that are moved into the cytoplasm by the benzoyl […]. […] The yield (qP/qS) was calculated from measured specific sugar uptake rate and specific farnesene production rate.
Single colonies were grown on CSM agar plates, then picked into sterile 96-well microtiter plates (1.1 mL working volume Axygen) containing 360 ul of defined liquid growth medium (LGM; as referenced in Example 1, Westfall et al, 2012) with 50 mM succinate (pH 5.0) and 2% sucrose+1% maltose+2 g/L lysine grown for 72 h at 28 C. […] Taking measurements of farnesene, biomass, and total residual sugar during log phase growth (at two times, T1 and T2) allows for the determination of specific productivity, growth rate, and specific sugar uptake rate. Farnesene is measured using full-well extraction with isopropanol, and quantified by UV absorbance at 220 nm with reference to a standard curve. Biomass was measured by assaying the fluorescent signal of intracellular tryptophan with an excitation wavelength of 290 nm and detection at 350 nm (UVOD). The relationship between this tryptophan signal and actual biomass is strain-dependent, and is determined empirically for each strain assayed. We do this by measuring both UVOD and biomass absorbance (OD) just prior to the start of production plates; this gives a per-well OD/UVOD conversion factor that is then used to convert UVOD signal at the end of production runs back to biomass. Another conversion we must make in determining biomass is from optical density (OD) to dry cell weight; this is also determined empirically. […] Growth rates were determined by applying a linear regression to LN (OD) vs time. Total reducing sugars was measured by using an enzymatic determination of sucrose, fructose and glucose with an output of NADH absorption read at 340 nm, as described in various commercial kits, as such those sold by Sigma Aldrich.

[7] = increasing concentrations of benzoic acid

Structure (SMILES): CCC(=O)O [Propionic Acid]
- YCR50 [1]: 20.0 mM

Structure (SMILES): CC(=O)O [Acetic Acid]
- YCR50 [1]: 105.0 mM

Structure (SMILES): NC(=O)C1=CN([C@@H]2O[C@H](COP(=O)(O)OP(=O)(O)OC[C@H]3O[C@@H](n4cnc5c(N)ncnc54)[C@H](O)[C@@H]3O)[C@@H](O)[C@H]2O)C=CC1 [NADH]
- Km [2]: 80 µM
- Km ([3]; read-out: Km^NADH): 160 µM
- Km ([4]; read-out: Km^NADH): 100 µM

Structure (SMILES): C/C=C/C=C/C(=O)O [Sorbic Acid]
- YCR50 [1]: 1.3 mM

Structure (SMILES): NC(=O)C1=CN([C@@H]2O[C@H](COP(=O)(O)OP(=O)(O)OC[C@H]3O[C@@H](n4cnc5c(N)ncnc54)[C@H](OP(=O)(O)O)[C@@H]3O)[C@@H](O)[C@H]2O)C=CC1 [NADPH]
- Km ([3]; read-out: Km^NADPH): 500 µM
- Km ([4]; read-out: Km^NADPH): 70 µM
- Km [5]: 30 µM

Structure (SMILES): O=C(O)c1ccccc1 [Benzoic Acid]
- YCR50 [1]: 2.0 mM
- calculated yield (qP/qS) ([6]; increased benzoic acid concentrations): increased
- specific farnesene productivity (qP) [6, 7]: did not change and even increased a little at intermediate concentrations
- specific growth rate (mu) [6, 7]: decreased linearly
